From US11136291B2, “Antifungal compounds and uses thereof” (Dana-Farber Cancer Institute, Inc., priority 2016, dated 2021) come the findings set out here.

≈ marks a conversion by molar mass, not a printed value.

In assay [1] the test system is PDRE-dependent luciferase gene transcription. In kind it is cell-based, Saccharomyces cerevisiae. Particulars: 40 μM ketoconazole; for Luciferase activity (5 μM + keto) (% DMSO + keto): 5 μM compound; for Luciferase activity (50 μM + keto) (% DMSO + keto): 50 μM compound.
The test system of assay [2] is Candida tropicalis DSY472. The assay is described as follows: Broth dilution MIC. Particulars: ATCC75.
Procedure: (§1) Antifungal susceptibility testing was carried out using broth dilution assays which examined effects of two-fold dilutions of compounds on cellular growth. The minimum inhibitory concentration (MIC) was defined as the drug concentration at which the optical density was equal to or decreased more than 50% from that of the drug-free culture.
The subject of assay [3] is Candida parapsilosis DSY473. Nature of the assay: Broth dilution MIC. To be noted: ATCC22019. On the technique in general: In broth dilution the organism is exposed to a series of concentrations in liquid medium.
Procedure: as §1
Another assay relates to Candida albicans DSY2621. Nature of the assay: Broth dilution MIC.
A further assay deals with Candida albicans SC5314. Nature of the assay: Broth dilution MIC.
Another assay concerns Candida glabrata DSY565. Nature of the assay: Broth dilution MIC. Particulars: Nakaseomyces glabratus.
Another assay addresses T1, CgGal11A KIX domain (Candida glabrata, UniProt Q6FRS9).
T1 construct: other: compared with iKIX1; other: GST-CgGal11A KIX 3 μM, 30 nM FITC-CgPdr1 AD30; Kd of CgPdr1 AD30 for CgGal11A KIX domain; other: FP titration, 30 nM FITC-CgPdr1 AD30; Kd of the CgPdr1 AD for the CgGal11A KIX domain; apparent Ki; fused on or other part: N-terminal His6-GST tag
The assay is described as follows: Fluorescence polarization (FP) binding/competition assay, CgPdr1 AD30 with CgGal11A KIX. Particulars: compared with iKIX1. The method, then:
A fluorescein-tagged 30 amino acid C-terminal activation domain of CgPdr1 (FITC-[…] (SEQ ID NO: 1)) CgPdr1 AD30 was purchased as a synthetic peptide from Pepide2.0. The CgGal11A KIX domain was expressed as a His6-GST fusion protein and purified by affinity chromatography with Ni-NTA resin (Qiagen) and size exclusion chromatography (Sephadex 75, Pharmacia). […] For small molecule screening, fluorescein-CgPdr1 AD30 was held at a concentration of 30 nM and the GST-tagged CgGal11A KIX was at a concentration of 1 μM (above the Kd). The screen was carried out in duplicate and the volume in each well was 25 μL.
To measure the dissociation constant (Kd) of CgPdr1 AD30, FITC labeled CgPdr1 AD30 was held at a concentration of 30 nM and the GST-tagged CgGal11A KIX was prepared with concentrations ranging from 0 to 300 μM. The IC50 for iKIX-1 binding was measured with GST-tagged CgGal11A KIX held at a constant 3 μM concentration, iKIX-1 was titrated from 0 to 1000 μM and 30 nM FITC-labeled CgPdr1 AD30 was added subsequently with an HP D300 digital dispenser (Tecan Group. Maennerdorf, Switzerland). All experiments were carried out in duplicate and the s.d. is reported at each point on the plot.
The FP titration curve of the CgPdr1 AD30 was fitted to GraphPad Prisms (La Jolla, Calif., USA) One site-total binding equation (equation 1). […]
(Fluorescence polarisation rises when a labelled molecule tumbles more slowly, as on binding a larger partner.)

Assay [4] has as its system Saccharomyces cerevisiae DSY2094. The assay is described as follows: Broth dilution MIC.
Procedure: as §1
For assay [5], the system named is C. glabrata CgPDR1 wild-type and gain-of-function mutant strains. Nature of the assay: Spot plating on gradient plates with azole. In kind it is cell-based, Candida glabrata.
The test system of another assay is Candida glabrata DSY562. Nature of the assay: Broth dilution MIC. Particulars: Nakaseomyces glabratus.
In assay [6] the test system is CgCDR1 transcription (CgPdr1 target). The assay is described as follows: Transcription assay, quantitative real-time PCR of CgPdr1 target genes. In kind it is cell-based, Candida glabrata. A general note: Real-time PCR tracks product formation cycle by cycle.
In a further assay the test system is Candida krusei DSY471. The assay is described as follows: Broth dilution MIC. To be noted: Pichia kudriavzevii, ATCC6258.
Assay [7] deals with C. glabrata. In kind it is in vivo, mouse. To be noted: single agent 100 mg/kg/day i.p.
Assay [8] concerns C. glabrata PDR1 wild-type or PDR1^L280F strains. Nature of the assay: Galleria mellonella survival assay. In kind it is in vivo. To be noted: […].
For assay [9], the system named is C. glabrata. Nature of the assay: Mouse disseminated fungal burden model. In kind it is in vivo. Particulars: mouse, in vivo.
Assay [10] relates to C. glabrata adherence to CHO-Lec2 cells. Nature of the assay: Yeast adherence to epithelial CHO-Lec2 cells. To be noted: PDR1^L280F mutant, 30 μM iKIX1 or 40 μM ketoconazole.

T1 sequence (Q6FRS9 whole entry, looked up, the tested form may be a part): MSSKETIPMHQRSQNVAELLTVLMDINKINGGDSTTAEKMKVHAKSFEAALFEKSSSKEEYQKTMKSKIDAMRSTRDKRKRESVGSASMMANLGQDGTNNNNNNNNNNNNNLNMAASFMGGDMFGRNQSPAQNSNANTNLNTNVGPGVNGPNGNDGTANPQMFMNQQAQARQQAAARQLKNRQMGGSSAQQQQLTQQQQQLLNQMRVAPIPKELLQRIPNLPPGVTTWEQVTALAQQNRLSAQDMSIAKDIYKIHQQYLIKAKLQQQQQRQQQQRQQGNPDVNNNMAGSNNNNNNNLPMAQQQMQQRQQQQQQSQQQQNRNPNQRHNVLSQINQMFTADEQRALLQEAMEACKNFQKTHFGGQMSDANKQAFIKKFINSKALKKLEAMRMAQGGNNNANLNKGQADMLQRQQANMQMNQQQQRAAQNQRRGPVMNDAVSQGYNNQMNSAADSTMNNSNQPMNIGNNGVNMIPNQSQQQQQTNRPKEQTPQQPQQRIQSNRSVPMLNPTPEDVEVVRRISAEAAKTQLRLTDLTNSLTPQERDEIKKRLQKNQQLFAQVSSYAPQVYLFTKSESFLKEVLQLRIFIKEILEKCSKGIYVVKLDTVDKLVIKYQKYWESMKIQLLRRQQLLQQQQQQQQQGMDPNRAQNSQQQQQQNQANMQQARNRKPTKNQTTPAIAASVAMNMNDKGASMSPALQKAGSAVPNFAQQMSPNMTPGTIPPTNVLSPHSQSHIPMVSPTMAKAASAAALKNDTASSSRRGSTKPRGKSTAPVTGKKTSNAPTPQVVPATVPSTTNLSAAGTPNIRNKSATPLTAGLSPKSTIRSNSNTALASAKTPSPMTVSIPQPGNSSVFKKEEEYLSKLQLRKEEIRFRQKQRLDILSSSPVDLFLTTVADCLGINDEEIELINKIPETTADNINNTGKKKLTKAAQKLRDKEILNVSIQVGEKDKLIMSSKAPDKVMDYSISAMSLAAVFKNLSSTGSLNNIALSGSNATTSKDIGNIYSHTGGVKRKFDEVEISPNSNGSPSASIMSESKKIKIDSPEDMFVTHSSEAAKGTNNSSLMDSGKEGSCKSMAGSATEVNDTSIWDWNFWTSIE
Procedure for Candida albicans DSY2621: as §1
Procedure for Candida albicans SC5314: as §1
Procedure for Candida glabrata DSY562: as §1
Procedure for Candida glabrata DSY565: as §1
Procedure for Candida krusei DSY471: as §1

Take `N#CC(C(=O)NNC(=S)Nc1ccc(Cl)c(Cl)c1)c1ccccc1` (stereo not drawn): in [1], the “Luciferase activity (5 μM + keto) (% DMSO + keto)” value turned out to be 86 % DMSO + keto and the “Luciferase activity (50 μM + keto) (% DMSO + keto)” value came to 38 % DMSO + keto.

Turning to `COc1cc(NC(=S)NNC(=O)CC#N)cc(Cl)c1Cl`, in [1], the “Luciferase activity (5 μM + keto) (% DMSO + keto)” value amounted to 52 % DMSO + keto and the “Luciferase activity (50 μM + keto) (% DMSO + keto)” value is recorded as 26 % DMSO + keto.

For orientation: MIC means the lowest concentration found to suppress growth. Read a low MIC as greater potency. In the case of `N#CCC(=O)NNC(=S)NCc1ccccc1` [Compound A02, reference compound], the MIC (in [2]; in [3]; in the assay on Candida albicans DSY2621; against Candida albicans SC5314; against Candida glabrata DSY565; in assay [4]) was over 100 µM throughout. Also, the MIC against Candida glabrata DSY562 and in the assay on Candida krusei DSY471 was over 100 µM each time. The “IC50 in the FP assay (in words)” value at CgGal11A KIX domain is given as “increases the IC50”. Further, in [5], the “synergistic C. glabrata cell growth inhibition with azole antifungal agents” value was “abolishes activity”. Moreover, in assay [1], the “ketoconazole-induced luciferase activity (in words)” value is listed as “abolishes activity”. Also, the “ketoconazole-induced CgPdr1 target gene (CgCDR1) transcription (in words)” value in [6] (CgPDR1 wild-type strain (SFY114), pre-treatment then 40 μM ketoconazole) is reported as “abolishes activity”.

For the compound `N#CCC(=O)NNC(=S)Nc1ccc(Cl)c(F)c1` [Compound A03, N-(4-Chloro-3-fluorophenyl)-2-(2-cyanoacetyl)hydrazinecarbothoamide], the minimal inhibitory concentration (MIC) came to 12.5 µM (≈ 3.58 µg/mL) in assay [2]; 50 µM (≈ 14.3 µg/mL) in assay [3]; 25 µM (≈ 7.17 µg/mL) against Candida albicans DSY2621; 25 µM (≈ 7.17 µg/mL) in the assay on Candida albicans SC5314; 25 µM (≈ 7.17 µg/mL) in the assay with Candida glabrata DSY565; 12.5 µM (≈ 3.58 µg/mL) in [4]. The MIC against Candida glabrata DSY562 and with Candida krusei DSY471 was 12.5 µM (≈ 3.58 µg/mL) each time.

As for `N#CCC(=O)NNC(=S)Nc1ccc(C(F)(F)F)c(Cl)c1` [Compound A07, N-(3-Chloro-4-(trifluoromethyl)phenyl)-2-(2-cyanoacetyl) hydrazinecarbothioamide], the MIC in assay [2] came to 3.25 µM (≈ 1.09 µg/mL); in assay [3] it was 6.25 µM (≈ 2.1 µg/mL); in the assay on Candida albicans DSY2621, 3.25 µM (≈ 1.09 µg/mL); with Candida albicans SC5314, 3.25 µM (≈ 1.09 µg/mL); against Candida glabrata DSY565, 3.12 µM (≈ 1.05 µg/mL); in assay [4], 3.12 µM (≈ 1.05 µg/mL). Besides, the MIC in the assay with Candida glabrata DSY562 turned out to be 3.12 µM (≈ 1.05 µg/mL); against Candida krusei DSY471, 6.25 µM (≈ 2.1 µg/mL).

Turning to `N#CCC(=O)NNC(=S)Nc1cc(Cl)cc(Cl)c1` [Compound A16], the MIC in assay [2] was 3.25 µM (≈ 0.985 µg/mL); in [3], 12.5 µM (≈ 3.79 µg/mL); in the assay on Candida albicans DSY2621, 6.25 µM (≈ 1.89 µg/mL); against Candida albicans SC5314, 6.25 µM (≈ 1.89 µg/mL); in the assay on Candida glabrata DSY565, 6.25 µM (≈ 1.89 µg/mL); in assay [4], 3.12 µM (≈ 0.947 µg/mL). In addition, the minimum inhibitory concentration (MIC) was found to be 3.12 µM (≈ 0.947 µg/mL) in the assay with Candida glabrata DSY562 and 3.25 µM (≈ 0.985 µg/mL) against Candida krusei DSY471.

Consider `N#CC1(C(=O)NNC(=S)Nc2ccc(Cl)c(Cl)c2)CC1` [Compound A18, 2-(1-Cyanocyclopropanecarbonyl)-N-(3,4-dichlorophenyl)hydrazinecarbothioamide], for which the MIC was found to be 12.5 µM (≈ 4.12 µg/mL) in assay [2]; 25 µM (≈ 8.23 µg/mL) in [3]; 6.25 µM (≈ 2.06 µg/mL) against Candida albicans DSY2621; 6.25 µM (≈ 2.06 µg/mL) against Candida albicans SC5314; 12.5 µM (≈ 4.12 µg/mL) in the assay on Candida glabrata DSY565; 12.5 µM (≈ 4.12 µg/mL) in [4]. The MIC against Candida glabrata DSY562 and against Candida krusei DSY471 was 6.25 µM (≈ 2.06 µg/mL) throughout.

Turning to `N#CCC(=O)NNC(=S)Nc1cc(Cl)cc(C(F)(F)F)c1` [Compound A52-8], the MIC in assay [2] turned out to be 3.12 µM (≈ 1.05 µg/mL); in assay [3], 12.5 µM (≈ 4.21 µg/mL); with Candida albicans DSY2621 it was 3.12 µM (≈ 1.05 µg/mL); in the assay on Candida albicans SC5314, 3.12 µM (≈ 1.05 µg/mL); against Candida glabrata DSY565, 6.25 µM (≈ 2.1 µg/mL); in assay [4], 3.12 µM (≈ 1.05 µg/mL). For the same compound, the MIC in the assay on Candida glabrata DSY562 and against Candida krusei DSY471 was 3.12 µM (≈ 1.05 µg/mL) in each case.

For the compound `N#CC1(C(=O)NNC(=S)Nc2ccc(Cl)c(Cl)c2)CCCCC1` [DFCI-1], the MIC in assay [2] turned out to be 6.25 µM (≈ 2.32 µg/mL); in assay [3], 12.5 µM (≈ 4.64 µg/mL); against Candida albicans DSY2621, 12.5 µM (≈ 4.64 µg/mL); with Candida albicans SC5314, 6.25 µM (≈ 2.32 µg/mL); in the assay on Candida glabrata DSY565, 6.25 µM (≈ 2.32 µg/mL); in assay [4] it was 6.25 µM (≈ 2.32 µg/mL). Besides, the MIC against Candida glabrata DSY562 came out at 6.25 µM (≈ 2.32 µg/mL); against Candida krusei DSY471, 3.12 µM (≈ 1.16 µg/mL).

As to `N#CC1(C(=O)NNC(=S)Nc2ccc(Cl)c(Cl)c2)CC1` [drawing 45], in assay [1], the “Luciferase activity (5 μM + keto) (% DMSO + keto)” value is given as 62 % DMSO + keto and the “Luciferase activity (50 μM + keto) (% DMSO + keto)” value came out at 25 % DMSO + keto. Also, in assay [6] (30 μM compound, PDR1 WT, ketoconazole induced), the “CgCDR1 qRT-PCR (30 μM in PDR1 WT) (% DMSO + keto)” value is listed as 5 % DMSO + keto.

As for `N#CCC(=O)NNC(=S)Nc1ccc(Cl)c(F)c1` [drawing 46], in [1], the “Luciferase activity (5 μM + keto) (% DMSO + keto)” value came out at 54 % DMSO + keto and the “Luciferase activity (50 μM + keto) (% DMSO + keto)” value turned out to be 30 % DMSO + keto.

In the case of `N#CCC(=O)NNC(=S)Nc1ccc(C(F)(F)F)c(Cl)c1` [drawing 47], in [1], the “Luciferase activity (5 μM + keto) (% DMSO + keto)” value worked out at 40 % DMSO + keto and the “Luciferase activity (50 μM + keto) (% DMSO + keto)” value came out at 21 % DMSO + keto.

As for `N#CCC(=O)NNC(=S)Nc1cc(Cl)cc(Cl)c1` [drawing 48], in [1], the “Luciferase activity (5 μM + keto) (% DMSO + keto)” value is recorded as 45 % DMSO + keto and the “Luciferase activity (50 μM + keto) (% DMSO + keto)” value amounted to 25 % DMSO + keto.

For the compound `N#CCC(=O)NNC(=S)Nc1cc(Cl)cc(C(F)(F)F)c1` [drawing 49], in assay [1], the “Luciferase activity (5 μM + keto) (% DMSO + keto)” value turned out to be 77 % DMSO + keto and the “Luciferase activity (50 μM + keto) (% DMSO + keto)” value came to 28 % DMSO + keto.

Turning to `N#CC1(C(=O)NNC(=S)Nc2ccc(Cl)c(Cl)c2)CCCCC1` [drawing 51], in assay [1], the “Luciferase activity (5 μM + keto) (% DMSO + keto)” value came to 53 % DMSO + keto and the “Luciferase activity (50 μM + keto) (% DMSO + keto)” value is 14 % DMSO + keto.

As for `OC(Cn1cncn1)(Cn1cncn1)c1ccc(F)cc1F` [fluconazole, reference compound], the “fungal load in bladder and kidney” value with C. glabrata [7] is “significantly reduces fungal burden in the bladder and kidney”. Further, the “survival of G. mellonella larvae” value in assay [8] (fluconazole 50 mg/kg alone) is reported as “sensitive to fluconazole alone”; in assay [8] (single agent (fluconazole 50 mg/kg or iKIX1 25 mg/kg) vs vehicle) it was “did not significantly increase survival”. Besides, in the assay on C. glabrata [9] (25 mg/kg), the tissue fungal burden result was “poorly reduced tissue burden”. Moreover, the “tissue fungal burden in the kidney and spleen” value in the assay with C. glabrata [9] (100 mg/kg) was “significantly reduced tissue fungal burden”.

On to `CC(=O)N1CCN(c2ccc(OCC3COC(Cn4ccnc4)(c4ccc(Cl)cc4Cl)O3)cc2)CC1` (stereo not drawn) [ketoconazole, reference compound], for which the “relative adherence to epithelial cells” value in [10] is reported as “reduce adherence”; in assay [10] (listed as Ketoconazole) it was “reduced relative adherence to levels comparable to a PDR1 wild-type strain”.
